Structures are written as SMILES.

In one data set the test system is TNF. Put plainly: Pre-screen of anti-TNF activity, cells + LPS (Table 2). The data set is classed as cell-based.
For data set [1], the target named is T1, TLR4 (Homo sapiens, UniProt O00206).
T1 construct: endogenous in cells
The experiment in a line: TLR4 ligand induced TNF-α secretion in THP-1 cells (ELISA). The settings on record: 1 hr pretreatment, TLR4 ligand 750 ng/ml, 24 hrs. The data set is classed as cell-based. The protocol: (§1) The present invention has checked the effect of various TLR ligands on THP-1 monocytes, PBMCs and their ability to activate and release TNF-α. For this purpose about 9 TLR ligands were used. These ligands were obtained from Apotech Cat; APO-54N-018-K101 and assayed for TNF-α release in culture supernatants. THP-1 (FIG. 1a) and PBMCs (2×10^5 cells/well) (FIG. 1b) were plated in 96-well plate. The cells were pretreated with RSCL-0520 in DMSO 1 hr prior to TLR ligand treatment. Following 1 hr pre-treatment, the cells were treated with TLR ligands [TLR2, TLR5 and TLR6-75 ng/ml each, TLR3-75 μg/ml, TLR4-750 ng/ml, TLR7, TLR8 and TLR9-7.5 μg/ml) for 24 hrs. The culture supernatant were collected after the stipulated time and assayed for TNF-α release using a Duoset Enzyme-Linked ImmunoSorbent Assay (ELISA) detection Kit (R&D systems, MN 55413, USA; Cat: DY-210 E). Simultaneously, supernatants from cells treated with ligands without RSCL-0520 pre-treatment and RSCL-0520 without ligand treatment were collected which served as respective controls.

In data set [2] the target is T1, TLR4. Put plainly: TLR4 ligand induced TNF-α secretion in PBMCs (ELISA). Format: cell-based. As to conditions: 1 hr pretreatment, TLR4 ligand 750 ng/ml, 24 hrs. The method, then:
as §1
Background: In an ELISA, binding on a coated surface is turned into a signal by an enzyme label.

In the next data set the test system is THP-1 cells. The experiment in a line: Toxicity to THP-1 cells by MTT assay. The data set is classed as cell-based, human. As to conditions: analyzed in tandem with TNF-α assay. From the text:
The toxicity of RSCL-0520 (FIG. 2b) was also by treating cells with RSCL-0520 by MTT assay. […] The viability of the cells (analyzed in tandem by MTT) was not affected by RSCL-0520 indicating its non-toxic nature.
On the technique in general: Formazan colour is commonly taken as a measure of viable cells.

Data set [3] relates to serum TNF-α. The experiment in a line: LPS induced TNF-α release in Balb/c mice, pre-treatment. Format: in vivo. As to conditions: serum 1 hr post LPS. The protocol:
(§2) The present invention has studied the ability of RSCL-0520 to exert protection against inflammatory agents in a mice (Balb/c) model. Balb/c (5-6 weeks) mice were injected with LPS (225 μg) intraperitoneally with and without pretreatment of RSCL-0520 (10 and 20 mg/kg). The compound was injected intraperitoneally 30 min before LPS treatment. The mice were monitored for 1 hr post LPS treatment. Untreated mice served as controls. Blood from retro-orbital plexus was collected under anesthesia 1 hr post LPS injection. Serum collected was analysed for TNF-α secretion using an ELISA detection kit.

The test system of data set [4] is serum TNF-α. The experiment in a line: LPS induced TNF-α release in Balb/c mice, treatment post LPS. Format: in vivo. The method, then:
as §2
Our results have more significance from the post LPS treatment of RSCL-0520. Here we have stimulated the inflammation process in mice with an injection of LPS (225 μg) intraperitoneally and 30 min post LPS, we have challenged the ability of RSCL-0520 at two different doses (10 mg/kg, 20 mg/kg) to inhibit the TNF-α secretion.

T1 sequence (O00206 24-839): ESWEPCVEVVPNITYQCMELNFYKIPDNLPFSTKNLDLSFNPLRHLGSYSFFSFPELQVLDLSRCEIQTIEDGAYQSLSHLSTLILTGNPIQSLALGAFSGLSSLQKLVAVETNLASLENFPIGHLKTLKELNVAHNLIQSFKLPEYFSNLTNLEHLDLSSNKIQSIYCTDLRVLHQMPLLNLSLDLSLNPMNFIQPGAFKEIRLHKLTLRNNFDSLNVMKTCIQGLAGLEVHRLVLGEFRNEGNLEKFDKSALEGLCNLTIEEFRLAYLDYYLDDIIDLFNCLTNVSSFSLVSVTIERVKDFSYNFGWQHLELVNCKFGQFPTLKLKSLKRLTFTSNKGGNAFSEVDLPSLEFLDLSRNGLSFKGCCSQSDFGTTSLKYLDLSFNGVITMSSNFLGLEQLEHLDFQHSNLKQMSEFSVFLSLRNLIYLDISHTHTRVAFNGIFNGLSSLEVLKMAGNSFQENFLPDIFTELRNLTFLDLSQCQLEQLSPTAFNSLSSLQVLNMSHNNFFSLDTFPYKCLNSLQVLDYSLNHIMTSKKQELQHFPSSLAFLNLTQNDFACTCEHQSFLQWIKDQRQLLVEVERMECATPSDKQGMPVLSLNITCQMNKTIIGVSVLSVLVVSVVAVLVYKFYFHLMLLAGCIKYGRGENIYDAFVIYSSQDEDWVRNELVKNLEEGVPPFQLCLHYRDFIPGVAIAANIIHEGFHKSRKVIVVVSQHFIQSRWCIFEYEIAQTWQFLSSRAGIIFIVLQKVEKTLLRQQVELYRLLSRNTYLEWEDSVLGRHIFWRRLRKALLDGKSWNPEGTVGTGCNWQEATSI
T1 sequence (Q9Y6Y9 17-160 partner limits assumed): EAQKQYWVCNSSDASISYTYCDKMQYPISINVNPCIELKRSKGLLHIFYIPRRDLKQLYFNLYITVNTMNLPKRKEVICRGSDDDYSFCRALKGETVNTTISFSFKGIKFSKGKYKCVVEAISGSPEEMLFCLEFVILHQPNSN

Usually inhibition stands for the percentage by which the read-out fell short of the control. With `COc1c(O)cc2ccc3cc(O)ccc3c2c1OC` [RSCL-0518, 2,7-dihydroxy-3,4-dimethoxyphenanthrene], in the data set with TNF (Cells + 1 μM + LPS), the inhibition at 1 µM came to 0%. Also, the inhibition at 10 µM in the data set with TNF (Cells + 10 μM + LPS) was determined as 0%. Besides, the inhibition at 50 µM in the data set with TNF (Cells + 50 μM + LPS) is 39%. Besides, in the data set with TNF (Cells + 100 μM + LPS), the inhibition at 100 µM came to 87%.

`COc1cc2c(c(OC(C)=O)c1)-c1ccc(OC)c(OC(C)=O)c1CC2` [RSCL-0521, 1,5-diacetoxy-2,7-dimethoxy-9,10-dihydrophenanthrene]: the inhibition at 1 µM in the data set on TNF (Cells + 1 μM + LPS) is 0%. Besides, in the data set on TNF (Cells + 10 μM + LPS), the inhibition at 10 µM came to 13%. Also, the inhibition at 50 µM in the data set with TNF (Cells + 50 μM + LPS) was 76%. Besides, in the data set on TNF (Cells + 100 μM + LPS), the inhibition at 100 µM stood at 92%.

Regarding `COc1ccc2c(ccc3cc(OC)c(OC)c(OC)c32)c1` [RSCL-0575, 2,3,4,7-tetramethoxyphenanthrene], the inhibition at 1 µM in the data set on TNF (Cells + 1 μM + LPS) amounted to 26%. Further, the inhibition at 10 µM in the data set with TNF (Cells + 10 μM + LPS) was 33%. Further, in the data set with TNF (Cells + 50 μM + LPS), the inhibition at 50 µM was 32%. In addition, the inhibition at 100 µM with TNF (Cells + 100 μM + LPS) was 49%.

For `COc1c(OC(=O)/C=C/c2ccc(OC(C)=O)c(OC(C)=O)c2)cc2ccc3cc(OC(=O)/C=C/c4ccc(OC(C)=O)c(OC(C)=O)c4)ccc3c2c1OC` [RSCL-0522, 3,4-dimethoxyphenanthrene-2,7-bis-[(2E)-3-[3,4-bis(acetyloxy)phenyl] acrylate], the “% TNF Inhibition” value in the data set on TNF (Cells + 1 μM + LPS) is on record as 0%; in the data set on TNF (Cells + 10 μM + LPS), 12%; with TNF (Cells + 50 μM + LPS), 37%; in the data set on TNF (Cells + 100 μM + LPS) it was 34%.

For `COc1cc(O)c2c(c1)CCc1c-2ccc(OC)c1O` [RSCL-0520, 1,5-dihydroxy-2,7-dimethoxy-9,10-dihydrophenanthrene], the inhibition at 1 µM with TNF (Cells + 1 μM + LPS) was 4%. Further, the inhibition at 10 µM in the data set with TNF (Cells + 10 μM + LPS) turned out to be 40%. Further, the inhibition at 50 µM in the data set with TNF (Cells + 50 μM + LPS) turned out to be 95%. Besides, in the data set with TNF (Cells + 100 μM + LPS), the inhibition at 100 µM is 100%. Moreover, the “decrease of TNF-α production” value at TLR4 [1] and on TLR4 [2] was ~50% in each case. For the same molecule, the “viability of the cells (MTT)” value in the data set with THP-1 cells is given as “not affected”. In addition, the “reduction of serum TNF production” value with serum TNF-α [3] (10 mg/kg i.p. 30 min before LPS 225 μg i.p.) was ~66%; in the data set with serum TNF-α [3] (20 mg/kg i.p. 30 min before LPS 225 μg i.p.), ~70%. Besides, the “inhibition of TNF secretion” value is ~38% in the data set with serum TNF-α [4] (10 mg/kg given 30 min post LPS 225 μg i.p.) and 49% in the data set on serum TNF-α [4] (20 mg/kg given 30 min post LPS 225 μg i.p.).

With `COc1cc(OCc2ccccc2)c2c(ccc3c(OCc4ccccc4)c(OC)ccc32)c1` [RSCL-0638, 1,5-dibenzyloxy-2,7-dimethoxy phenanthrene], the inhibition at 1 µM in the data set on TNF (Cells + 1 μM + LPS) is 0%. Moreover, the inhibition at 10 µM with TNF (Cells + 10 μM + LPS) worked out at 0%. For the same molecule, in the data set with TNF (Cells + 50 μM + LPS), the inhibition at 50 µM worked out at 0%. For the same molecule, the inhibition at 100 µM with TNF (Cells + 100 μM + LPS) was found to be 0%.

Regarding `COc1c(OC(C)=O)cc2ccc3cc(OC(C)=O)ccc3c2c1OC` [RSCL-0519, 2,7-diacetoxy-3,4-dimethoxyphenanthrene], the inhibition at 1 µM with TNF (Cells + 1 μM + LPS) was found to be 0%. Moreover, the inhibition at 10 µM in the data set on TNF (Cells + 10 μM + LPS) was found to be 0%. The inhibition at 50 µM in the data set on TNF (Cells + 50 μM + LPS) is 21%. Also, the inhibition at 100 µM in the data set on TNF (Cells + 100 μM + LPS) came out at 72%.

The values are drawn from patent publication US20090215908A1, “TOLL LIKE RECEPTOR (TLR) SIGNALING ANTAGONIST” (RELIANCE LIFE SCIENCES PVT. LTD., priority 2007, published 2009).
